The record followed here is publication PMC8351955, “Targeting Mycobacterium tuberculosis response to environmental cues for the development of effective antitubercular drugs” (PLoS Biology, 2021).

Common to all, as to assay: microbe, parasite or virus in culture
Format in all cases: cell-based, Mycobacterium tuberculosis

The test system of assay [1] is Mtb growth in J774 murine macrophage-like cells. Particulars: for inhibition at 10 µM: read-out: J774 tertiary assay % inhibition compared to Rif at 10 µM compound; for NPI (Mtb growth in J774 cells), average: Fig 1F.
Assay [2] relates to CDC1551(rv2390c′::GFP) reporter Mtb strain, response to high [Cl−]. Conditions: for activity at 10 µM / activity at 20 µM: 144 h; for activity at 20 µM: read-out: rv2390c'::GFP validation assay NPA% at 20 µM compound.
Assay [3] has as its system CDC1551(rv1405c′::GFP) reporter Mtb strain. Conditions: for activity at 10 µM: read-out: rv1405c'::GFP secondary assay NPA% at 10 µM compound; for activity at 20 µM: read-out: rv1405c'::GFP secondary assay NPA% at 20 µM compound.
[4] abbreviates: Mycobacterium tuberculosis, J774, 144 h.
Setting [5] is: Mycobacterium tuberculosis, J774, 144 h, read-out: J774 tertiary assay % inhibition compared to Rif at 20 µM compound.
Where [6] appears, read: Mycobacterium tuberculosis, pH 6.4, […], DMSO positive control = 100%, read-out: Primary screen rv2390c'::GFP NPA%.
The mark [7] stands for this setting: Mycobacterium tuberculosis, 10 µM, pH 6.4, 250 mM NaCl, 6 days, read-out: rv2390c'::GFP validation assay NPA% at 10 µM compound.
[8] abbreviates: Mycobacterium tuberculosis, pH 6.4, 250 mM NaCl, 6 days.
[9] abbreviates: 0.078125 µM, 5 µM rifampicin = 100% inhibition.

A word on the inhibition: it is the percentage by which the read-out fell short of the control. Broadly, the IC50 is the concentration that inhibits the measured activity by half.

Each structure is given as a SMILES string. Like-named read-outs stand apart in the source and are kept apart here.

Turning to `Cc1c(Cl)cccc1S(=O)(=O)Nc1nn(C(C)(C)C)cc1C#N` [RU-0208737, CC1=C(C=CC=C1Cl)S(=O)(=O)NC1=NN(C=C1C#N)C(C)(C)C], in assay [1] (setting [4]), the inhibition at 10 µM came to 9.6 ± 0.7%. Further, the inhibition at 20 µM in assay [1] (setting [5]) was 20.9 ± 6.9%. Besides, the activity at 10 µM amounted to 47.8% in assay [2] (setting [6]), 53.8 ± 2.8% in assay [2] (setting [7]) and 50.8 ± 1.7% in assay [3] (Mycobacterium tuberculosis). In addition, the activity at 20 µM in assay [2] (setting [8]) was 40.2 ± 8.5%; in assay [3] (Mycobacterium tuberculosis), 84.4 ± 13.1%.
On to `O=S1(=O)CC(S(=O)(=O)Nc2ccccc2-c2cccs2)c2ccccc21` (stereo not shown) [RU-0214604, O=S(=O)(NC1=C(C=CC=C1)C1=CC=CS1)C1CS(=O)(=O)C2=C1C=CC=C2], for which the inhibition at 20 µM in assay [1] (Mycobacterium tuberculosis, J774, read-out: %inhibition compared to Rif in J774 at 20 uM) stood at 14.8%. Besides, the IC50 in assay [1] (Mycobacterium tuberculosis, J774 dose response 0.039-20 µM, read-out: ShuminTan.Mtb.Validation.Macrophage: IC50) was over 20000 nM; in assay [2] (Mycobacterium tuberculosis, read-out: ShuminTan.MtbChloride.Validation: IC50), under 39.1 nM; in assay [3] (Mycobacterium tuberculosis, read-out: ShuminTan.MtbChloride.Secondary: IC50), under 39.1 nM. Also, the “validation NPI at 10 uM” value in assay [2] (10 uM) is 146. In addition, the “validation NPI at 20 uM” value in assay [2] (20 uM) is on record as 162. For the same molecule, the activity at 10 µM in assay [2] (setting [6]) turned out to be 183%; in assay [2] (setting [7]), 145 ± 12%; in assay [3] (Mycobacterium tuberculosis) it was 179 ± 26.5%. For the same molecule, the activity at 20 µM in assay [2] (setting [8]) turned out to be 161 ± 3.2%; in assay [3] (Mycobacterium tuberculosis), 213 ± 23.6%. Also, the “ShuminTan.MtbChloride.Primary: NPI%” value in assay [2] (primary screen, Sheet2) stood at 183.08%. Besides, the “rv1405c assay NPI at 10 uM” value in assay [3] (10 uM) is 181. In assay [3] (20 uM), the “rv1405c assay NPI at 20 uM” value came out at 212.
As to `CCCSc1ncc(CN2CCN(c3ncnc4[nH]cnc34)CC2)cn1` [C6 analog, CCCSC1=NC=C(CN2CCN(CC2)C2=NC=NC3=C2N=CN3)C=N1], the “NPI (Mtb growth in J774 cells), average” value in assay [1] (setting [9]) was -6.22%; in assay [1] (0.15625 µM) it was 3.8025%; in assay [1] (0.3125 µM) it was 9.675%; in assay [1] (0.625 µM), 16.75%; in assay [1] (1.25 µM) it was 32.05%; in assay [1] (2.5 µM), 36.55%. Besides, the “NPI (Mtb growth in J774 cells), average” value is 46.75% in assay [1] (5 µM), 41.15% in assay [1] (10 µM) and 53.2% in assay [1] (20 µM). For the same molecule, the inhibition at 10 µM in assay [1] (setting [4]) amounted to 41.2 ± 0.6%. Also, the inhibition at 20 µM in assay [1] (setting [5]) came to 53.2 ± 1.6%. Further, the activity at 10 µM is 153% in assay [2] (setting [6]), 124 ± 10.1% in assay [2] (setting [7]) and 151 ± 6.4% in assay [3] (Mycobacterium tuberculosis). Moreover, the results for the activity at 20 µM in assay [2] (setting [8]) and in assay [3] (Mycobacterium tuberculosis) were 158 ± 6.1% and 154 ± 8.1%, respectively.
Take `N#Cc1nc(NC(=O)c2ccc(N3CCCC3)c(F)c2)[nH]c1C#N` [RU-0274370, FC1=C(C=CC(=C1)C(=O)NC1=NC(C#N)=C(N1)C#N)N1CCCC1]: in assay [1] (setting [4]), the inhibition at 10 µM was determined as 22.2 ± 0.2%. The inhibition at 20 µM in assay [1] (setting [5]) was determined as 25.3 ± 4.1%. Also, the activity at 10 µM stood at 227% in assay [2] (setting [6]), 143 ± 10% in assay [2] (setting [7]) and 181 ± 7.8% in assay [3] (Mycobacterium tuberculosis). Further, the figures for the activity at 20 µM in assay [2] (setting [8]) and in assay [3] (Mycobacterium tuberculosis) were 268 ± 20.8% and 363 ± 8.7%, respectively.
As for `O=C(c1cnn2ccccc12)N1CCCC(CCc2cccc(C(F)(F)F)c2)C1` (stereo not shown) [C5 analog, FC(F)(F)C1=CC=CC(CCC2CCCN(C2)C(=O)C2=C3C=CC=CN3N=C2)=C1], the “NPI (Mtb growth in J774 cells), average” value is recorded as -4.805% in assay [1] (setting [9]); -8.165% in assay [1] (0.15625 µM); -7.245% in assay [1] (0.3125 µM); 7.86% in assay [1] (0.625 µM); -0.385% in assay [1] (1.25 µM); 11.205% in assay [1] (2.5 µM). Besides, the “NPI (Mtb growth in J774 cells), average” value is reported as 9.965% in assay [1] (5 µM), 21.35% in assay [1] (10 µM) and 48.15% in assay [1] (20 µM). In addition, the inhibition at 10 µM in assay [1] (setting [4]) amounted to 21.4 ± 7.7%. The inhibition at 20 µM in assay [1] (setting [5]) was 48.2 ± 1.5%. Besides, the activity at 10 µM is 167% in assay [2] (setting [6]), 112 ± 12% in assay [2] (setting [7]) and 110 ± 7.2% in assay [3] (Mycobacterium tuberculosis). The activity at 20 µM in assay [2] (setting [8]) stood at 156 ± 9.9%; in assay [3] (Mycobacterium tuberculosis) it was 150 ± 12%.
On to `COc1ccc(Cl)c(NS(=O)(=O)c2cnc(Cl)n2C)c1` [RU-0278036, COC1=CC(NS(=O)(=O)C2=CN=C(Cl)N2C)=C(Cl)C=C1], for which, in assay [1] (setting [4]), the inhibition at 10 µM is 23.9 ± 12.9%. For the same molecule, in assay [1] (setting [5]), the inhibition at 20 µM came out at 61.5 ± 2.6%. Besides, the activity at 10 µM in assay [2] (setting [6]) stood at 48.8%; in assay [2] (setting [7]), 87.6 ± 8%; in assay [3] (Mycobacterium tuberculosis), 75.9 ± 12.9%. Also, the activity at 20 µM in assay [2] (setting [8]) came out at 50 ± 7.7%; in assay [3] (Mycobacterium tuberculosis), 152 ± 19.9%.
Turning to `Cc1ccc(NC(=O)[C@@H]2CCCN2S(=O)(=O)c2ccccc2F)cc1` [RU-0270461, CC1=CC=C(NC(=O)[C@@H]2CCCN2S(=O)(=O)C2=C(F)C=CC=C2)C=C1], the activity at 10 µM in assay [2] (setting [6]) stood at 151%; in assay [2] (setting [7]) it was 116 ± 6.6%; in assay [3] (Mycobacterium tuberculosis), 98.1 ± 2.7%. For the same molecule, the activity at 20 µM was 168 ± 4% in assay [2] (setting [8]) and 159 ± 7.6% in assay [3] (Mycobacterium tuberculosis).
Taken in the same sequence, the figures for `CCN(CC)c1ccc2c(NC3CCCCC3)nc(=O)oc2c1` [RU-0196346, CCN(CC)C1=CC2=C(C=C1)C(NC1CCCCC1)=NC(=O)O2] were 183%, 161 ± 6.2%, 110 ± 13%, 192 ± 12.4% and 115 ± 9.5%.
Regarding `COc1ccc2c(CN3CCOCC(CN(C)C)C3)cn(C)c2c1` (stereo not shown) [RU-0260647, COC1=CC=C2C(CN3CCOCC(CN(C)C)C3)=CN(C)C2=C1], the activity at 10 µM in assay [2] (setting [6]) was 162%; in assay [2] (setting [7]), 114 ± 3.2%; in assay [3] (Mycobacterium tuberculosis) it was 112 ± 2.5%. Further, the results for the activity at 20 µM in assay [2] (setting [8]) and in assay [3] (Mycobacterium tuberculosis) were 130 ± 7.6% and 130 ± 3.6%, respectively.
As to `COc1ccc(Cl)cc1-c1cc(NC(=O)c2c(C)noc2C)[nH]n1` [RU-0210243, COC1=C(C=C(Cl)C=C1)C1=NNC(NC(=O)C2=C(C)ON=C2C)=C1], the activity at 10 µM came out at 254% in assay [2] (setting [6]), 211 ± 11.6% in assay [2] (setting [7]) and 342.7 ± 3.1% in assay [3] (Mycobacterium tuberculosis). For the same molecule, the activity at 20 µM in assay [2] (setting [8]) was 357 ± 20%; in assay [3] (Mycobacterium tuberculosis), 737 ± 25.3%.
Taken in the same sequence, the figures for `CC(NC(=O)C1Cc2ccccc2O1)c1ccc(Cl)s1` (stereo not shown) [RU-0272776, CC(NC(=O)C1CC2=C(O1)C=CC=C2)C1=CC=C(Cl)S1] were 231%, 170 ± 3.6%, 88.5 ± 5.6%, 192 ± 26.2% and 105 ± 5.5%.
Taken in the same sequence, the figures for `NC(=O)c1cc2c(cc1-c1cccc(C(F)(F)F)c1)OCO2` [RU-0234167, NC(=O)C1=CC2=C(OCO2)C=C1C1=CC=CC(=C1)C(F)(F)F] were 343%, 221 ± 6.7%, 201 ± 15%, 383 ± 10.4% and 291 ± 18.7%.
Taken in the same sequence, the figures for `CC(C)c1cc(C(=O)NC2CCN(c3cccc(F)c3)CC2)n[nH]1` [RU-0278450, CC(C)C1=CC(=NN1)C(=O)NC1CCN(CC1)C1=CC(F)=CC=C1] were 175%, 118 ± 5.7%, 92.3 ± 5.3%, 231 ± 1% and 146 ± 5.1%.
Turning to `Cc1csc(/C(C#N)=C\c2ccc(C3CC3C)o2)n1` (stereo not shown) [RU-0200280, CC1CC1C1=CC=C(O1)\C=C(\C#N)C1=NC(C)=CS1], the figures for the activity at 10 µM in assay [2] (setting [6]), in assay [2] (setting [7]) and in assay [3] (Mycobacterium tuberculosis) were 277%, 144 ± 5.5% and 399 ± 31.8%, respectively. For the same molecule, the activity at 20 µM in assay [2] (setting [8]) is 248 ± 21.2%.
As for `CCCc1ccccc1NC(N)=S` [RU-0214166, CCCC1=C(NC(N)=S)C=CC=C1], the activity at 10 µM was 34.1% in assay [2] (setting [6]), 56.8 ± 5.8% in assay [2] (setting [7]) and 61.8 ± 0.5% in assay [3] (Mycobacterium tuberculosis). Further, the activity at 20 µM in assay [2] (setting [8]) was 31.6 ± 12.3%; in assay [3] (Mycobacterium tuberculosis), 111 ± 15.1%.
The matching figures for `O=C(NC[C@H]1C[C@H]2C=C[C@H]1C21CC1)c1cnc(N2CCOCC2)nc1` [RU-0184528, O=C(NC[C@H]1C[C@H]2C=C[C@H]1C21CC1)C1=CN=C(N=C1)N1CCOCC1]: 158%, 111 ± 2.1%, 104 ± 21.9%, 134 ± 13.6% and 136 ± 11.8%.
The matching figures for `COC(=O)c1sc(NS(=O)(=O)c2ccc(S(C)(=O)=O)c(F)c2)nc1C` [RU-0208648, COC(=O)C1=C(C)N=C(NS(=O)(=O)C2=CC(F)=C(C=C2)S(C)(=O)=O)S1]: 36.7%, 55.2 ± 3.9%, 45.2 ± 2.1%, 38.5 ± 6.3% and 13.7 ± 2.5%.
